Where a SMILES comes first, the peptide text is derived from it. Bridges are numbered along the chain shown (N, C = ends).
Legend:
Test in all cases: BROMOscan competition binding assay (BromoMAX, Eurofins DiscoverX)
BAZ2A = molecular target: T1, BAZ2A (Homo sapiens, UniProt Q9UIF9); conditions: for Percent Control BAZ2A: compound concentration 1000 nM, lower percentage control = stronger affinity
T1 construct: purchased Eurofins DiscoverX (BROMOscan, BromoMAX)

BRD1 = molecular target: T2, BRD1 (Homo sapiens, UniProt O95696); conditions: for Percent Control BRD1: compound concentration 1000 nM, lower percentage control = stronger affinity
T2 construct: purchased Eurofins DiscoverX (BROMOscan, BromoMAX)
T2 sequence (O95696 1-1058): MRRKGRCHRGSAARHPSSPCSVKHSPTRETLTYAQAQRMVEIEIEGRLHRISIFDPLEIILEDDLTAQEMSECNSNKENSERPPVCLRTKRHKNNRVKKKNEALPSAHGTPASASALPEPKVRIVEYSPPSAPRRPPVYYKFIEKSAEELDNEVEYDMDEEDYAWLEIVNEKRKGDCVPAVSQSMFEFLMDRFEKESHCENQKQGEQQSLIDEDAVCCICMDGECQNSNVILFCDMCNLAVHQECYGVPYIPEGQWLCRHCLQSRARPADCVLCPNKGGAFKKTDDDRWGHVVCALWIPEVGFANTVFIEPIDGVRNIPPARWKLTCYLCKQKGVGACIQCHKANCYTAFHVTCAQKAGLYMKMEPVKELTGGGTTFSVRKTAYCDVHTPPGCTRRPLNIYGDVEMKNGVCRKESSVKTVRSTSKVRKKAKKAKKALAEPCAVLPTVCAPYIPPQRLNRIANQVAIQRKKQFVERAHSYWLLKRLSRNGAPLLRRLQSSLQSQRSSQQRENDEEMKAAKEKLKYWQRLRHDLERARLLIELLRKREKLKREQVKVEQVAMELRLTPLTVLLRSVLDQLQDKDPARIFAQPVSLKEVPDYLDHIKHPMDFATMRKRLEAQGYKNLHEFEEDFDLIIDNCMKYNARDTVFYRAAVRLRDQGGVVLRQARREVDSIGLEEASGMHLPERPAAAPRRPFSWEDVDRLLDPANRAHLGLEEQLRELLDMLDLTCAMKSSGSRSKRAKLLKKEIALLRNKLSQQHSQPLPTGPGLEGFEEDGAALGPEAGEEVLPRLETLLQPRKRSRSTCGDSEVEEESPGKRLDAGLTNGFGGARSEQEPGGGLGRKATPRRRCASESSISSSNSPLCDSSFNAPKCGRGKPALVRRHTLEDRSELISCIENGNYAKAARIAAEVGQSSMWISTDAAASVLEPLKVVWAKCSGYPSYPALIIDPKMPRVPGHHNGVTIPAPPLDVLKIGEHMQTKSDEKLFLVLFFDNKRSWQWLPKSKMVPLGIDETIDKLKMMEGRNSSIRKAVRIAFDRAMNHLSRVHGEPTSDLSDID

BRD2(1) = molecular target: T3, BRD2(1) (Homo sapiens, UniProt P25440); conditions: for Percent Control BRD2(1): compound concentration 1000 nM, lower percentage control = stronger affinity
T3 construct: BRD2(1); purchased Eurofins DiscoverX (BROMOscan, BromoMAX)

BRD2(2) = molecular target: T4, BRD2(2) (Homo sapiens, UniProt P25440); conditions: for Percent Control BRD2(2): compound concentration 1000 nM, lower percentage control = stronger affinity
T4 construct: BRD2(2); purchased Eurofins DiscoverX (BROMOscan, BromoMAX)

BRD3(2) = molecular target: T5, BRD3(2) (Homo sapiens, UniProt Q15059); conditions: for Percent Control BRD3(2): compound concentration 1000 nM, lower percentage control = stronger affinity
T5 construct: BRD3(2); purchased Eurofins DiscoverX (BROMOscan, BromoMAX)

BRD4(1) = molecular target: T6, BRD4(1) (Homo sapiens, UniProt O60885); conditions: for Percent Control BRD4(1): compound concentration 1000 nM, lower percentage control = stronger affinity
T6 construct: BRD4(1); purchased Eurofins DiscoverX (BROMOscan, BromoMAX)

BRD4(2) = molecular target: T7, BRD4(2) (Homo sapiens, UniProt O60885); conditions: for Percent Control BRD4(2): compound concentration 1000 nM, lower percentage control = stronger affinity
T7 construct: BRD4(2); purchased Eurofins DiscoverX (BROMOscan, BromoMAX)

CECR2 = molecular target: T8, CECR2 (Homo sapiens, UniProt Q9BXF3); conditions: for Percent Control CECR2: compound concentration 1000 nM, lower percentage control = stronger affinity
T8 construct: purchased Eurofins DiscoverX (BROMOscan, BromoMAX)

EP300 = molecular target: T9, EP300 (Homo sapiens, UniProt Q09472); conditions: for Percent Control EP300: compound concentration 1000 nM, lower percentage control = stronger affinity
T9 construct: purchased Eurofins DiscoverX (BROMOscan, BromoMAX)

FALZ = molecular target: T10, FALZ (Homo sapiens, UniProt Q12830); conditions: for Percent Control FALZ: compound concentration 1000 nM, lower percentage control = stronger affinity
T10 construct: purchased Eurofins DiscoverX (BROMOscan, BromoMAX)

GCN5L2 = molecular target: T11, GCN5L2 (Homo sapiens, UniProt Q92830); conditions: for Percent Control GCN5L2: compound concentration 1000 nM, lower percentage control = stronger affinity
T11 construct: purchased Eurofins DiscoverX (BROMOscan, BromoMAX)

PBRM1(2) = molecular target: T12, PBRM1(2) (Homo sapiens, UniProt Q86U86); conditions: for Percent Control PBRM1(2): compound concentration 1000 nM, lower percentage control = stronger affinity
T12 construct: PBRM1(2); purchased Eurofins DiscoverX (BROMOscan, BromoMAX)

PCAF = molecular target: T13, PCAF (Homo sapiens, UniProt Q92831); conditions: for Percent Control PCAF: compound concentration 1000 nM, lower percentage control = stronger affinity
T13 construct: purchased Eurofins DiscoverX (BROMOscan, BromoMAX)

SMARCA2 = molecular target: T14, SMARCA2 (Homo sapiens, UniProt P51531); conditions: for Percent Control SMARCA2: compound concentration 1000 nM, lower percentage control = stronger affinity
T14 construct: purchased Eurofins DiscoverX (BROMOscan, BromoMAX)

TAF1(2) = molecular target: T15, TAF1(2) (Homo sapiens, UniProt P21675); conditions: for Percent Control TAF1(2): compound concentration 1000 nM, lower percentage control = stronger affinity
T15 construct: TAF1(2); purchased Eurofins DiscoverX (BROMOscan, BromoMAX)
T15 sequence (P21675 1521-1656 limits assumed): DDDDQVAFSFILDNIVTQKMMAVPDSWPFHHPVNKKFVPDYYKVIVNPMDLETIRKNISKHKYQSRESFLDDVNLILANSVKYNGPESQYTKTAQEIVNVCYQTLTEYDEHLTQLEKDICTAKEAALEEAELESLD

T5 sequence (Q15059 306-416 limits assumed): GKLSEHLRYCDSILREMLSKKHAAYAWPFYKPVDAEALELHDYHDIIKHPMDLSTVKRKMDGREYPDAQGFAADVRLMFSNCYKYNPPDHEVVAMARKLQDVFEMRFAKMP
T9 sequence (Q09472 whole entry): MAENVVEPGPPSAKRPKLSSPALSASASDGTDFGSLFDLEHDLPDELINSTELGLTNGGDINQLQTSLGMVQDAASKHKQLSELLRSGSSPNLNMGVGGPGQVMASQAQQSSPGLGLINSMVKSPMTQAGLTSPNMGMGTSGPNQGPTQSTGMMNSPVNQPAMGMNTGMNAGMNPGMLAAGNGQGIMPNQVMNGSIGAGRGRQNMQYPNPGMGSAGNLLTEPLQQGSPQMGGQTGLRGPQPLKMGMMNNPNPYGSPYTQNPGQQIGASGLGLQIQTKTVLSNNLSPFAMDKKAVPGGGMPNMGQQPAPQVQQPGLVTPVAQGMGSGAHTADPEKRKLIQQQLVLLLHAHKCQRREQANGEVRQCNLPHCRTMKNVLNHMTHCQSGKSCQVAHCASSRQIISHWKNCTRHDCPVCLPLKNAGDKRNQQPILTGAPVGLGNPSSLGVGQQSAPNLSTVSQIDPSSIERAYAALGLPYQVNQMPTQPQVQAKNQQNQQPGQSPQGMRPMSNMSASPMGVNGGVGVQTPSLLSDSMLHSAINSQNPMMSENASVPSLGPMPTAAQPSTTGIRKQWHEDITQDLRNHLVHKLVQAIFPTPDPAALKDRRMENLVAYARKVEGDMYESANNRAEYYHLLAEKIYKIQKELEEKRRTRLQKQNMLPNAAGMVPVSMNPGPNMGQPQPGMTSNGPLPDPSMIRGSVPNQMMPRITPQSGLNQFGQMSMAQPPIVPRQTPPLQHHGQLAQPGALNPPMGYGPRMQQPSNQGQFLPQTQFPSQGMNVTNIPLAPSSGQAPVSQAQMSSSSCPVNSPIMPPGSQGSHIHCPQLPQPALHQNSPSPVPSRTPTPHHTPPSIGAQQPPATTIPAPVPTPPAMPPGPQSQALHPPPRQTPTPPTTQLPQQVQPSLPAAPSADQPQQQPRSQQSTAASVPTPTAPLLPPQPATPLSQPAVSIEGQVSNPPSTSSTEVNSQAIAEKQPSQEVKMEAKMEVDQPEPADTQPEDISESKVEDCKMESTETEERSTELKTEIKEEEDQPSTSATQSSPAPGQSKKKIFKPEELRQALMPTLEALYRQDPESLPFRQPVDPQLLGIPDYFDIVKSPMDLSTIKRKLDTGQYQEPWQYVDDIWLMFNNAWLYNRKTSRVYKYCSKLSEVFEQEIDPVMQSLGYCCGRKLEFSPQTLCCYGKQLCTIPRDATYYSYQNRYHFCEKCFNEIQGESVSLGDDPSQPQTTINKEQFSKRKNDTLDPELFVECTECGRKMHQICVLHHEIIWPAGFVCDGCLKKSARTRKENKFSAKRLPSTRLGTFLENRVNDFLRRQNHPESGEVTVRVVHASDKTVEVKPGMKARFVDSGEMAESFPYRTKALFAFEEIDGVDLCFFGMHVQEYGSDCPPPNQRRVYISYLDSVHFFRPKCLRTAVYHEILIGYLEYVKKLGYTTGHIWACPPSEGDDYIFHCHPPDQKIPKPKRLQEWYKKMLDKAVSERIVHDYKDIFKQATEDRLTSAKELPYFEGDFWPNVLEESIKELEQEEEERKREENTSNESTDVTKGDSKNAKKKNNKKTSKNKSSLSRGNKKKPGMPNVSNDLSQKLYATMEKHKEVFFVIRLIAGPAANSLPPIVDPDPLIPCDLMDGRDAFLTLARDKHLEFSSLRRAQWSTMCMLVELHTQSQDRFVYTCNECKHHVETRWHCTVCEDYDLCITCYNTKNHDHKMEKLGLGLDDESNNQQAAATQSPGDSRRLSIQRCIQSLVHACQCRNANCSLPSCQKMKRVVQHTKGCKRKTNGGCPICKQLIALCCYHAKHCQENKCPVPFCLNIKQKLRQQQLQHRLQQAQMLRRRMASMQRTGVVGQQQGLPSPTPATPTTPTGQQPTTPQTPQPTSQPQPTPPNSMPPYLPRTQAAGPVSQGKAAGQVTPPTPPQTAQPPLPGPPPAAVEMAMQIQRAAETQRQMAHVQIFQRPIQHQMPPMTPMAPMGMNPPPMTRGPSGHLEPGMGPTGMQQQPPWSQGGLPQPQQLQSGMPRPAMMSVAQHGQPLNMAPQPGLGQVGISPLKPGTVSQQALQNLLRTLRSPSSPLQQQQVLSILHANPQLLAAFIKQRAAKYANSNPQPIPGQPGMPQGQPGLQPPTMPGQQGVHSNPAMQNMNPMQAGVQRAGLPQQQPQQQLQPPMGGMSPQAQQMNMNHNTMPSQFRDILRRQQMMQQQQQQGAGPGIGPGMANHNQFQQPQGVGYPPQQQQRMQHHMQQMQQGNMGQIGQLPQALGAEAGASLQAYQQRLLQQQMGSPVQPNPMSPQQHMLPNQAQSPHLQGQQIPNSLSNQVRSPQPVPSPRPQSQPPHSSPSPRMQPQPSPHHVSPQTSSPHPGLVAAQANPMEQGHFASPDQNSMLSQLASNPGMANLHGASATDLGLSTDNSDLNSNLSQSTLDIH
T1 sequence (Q9UIF9 whole entry): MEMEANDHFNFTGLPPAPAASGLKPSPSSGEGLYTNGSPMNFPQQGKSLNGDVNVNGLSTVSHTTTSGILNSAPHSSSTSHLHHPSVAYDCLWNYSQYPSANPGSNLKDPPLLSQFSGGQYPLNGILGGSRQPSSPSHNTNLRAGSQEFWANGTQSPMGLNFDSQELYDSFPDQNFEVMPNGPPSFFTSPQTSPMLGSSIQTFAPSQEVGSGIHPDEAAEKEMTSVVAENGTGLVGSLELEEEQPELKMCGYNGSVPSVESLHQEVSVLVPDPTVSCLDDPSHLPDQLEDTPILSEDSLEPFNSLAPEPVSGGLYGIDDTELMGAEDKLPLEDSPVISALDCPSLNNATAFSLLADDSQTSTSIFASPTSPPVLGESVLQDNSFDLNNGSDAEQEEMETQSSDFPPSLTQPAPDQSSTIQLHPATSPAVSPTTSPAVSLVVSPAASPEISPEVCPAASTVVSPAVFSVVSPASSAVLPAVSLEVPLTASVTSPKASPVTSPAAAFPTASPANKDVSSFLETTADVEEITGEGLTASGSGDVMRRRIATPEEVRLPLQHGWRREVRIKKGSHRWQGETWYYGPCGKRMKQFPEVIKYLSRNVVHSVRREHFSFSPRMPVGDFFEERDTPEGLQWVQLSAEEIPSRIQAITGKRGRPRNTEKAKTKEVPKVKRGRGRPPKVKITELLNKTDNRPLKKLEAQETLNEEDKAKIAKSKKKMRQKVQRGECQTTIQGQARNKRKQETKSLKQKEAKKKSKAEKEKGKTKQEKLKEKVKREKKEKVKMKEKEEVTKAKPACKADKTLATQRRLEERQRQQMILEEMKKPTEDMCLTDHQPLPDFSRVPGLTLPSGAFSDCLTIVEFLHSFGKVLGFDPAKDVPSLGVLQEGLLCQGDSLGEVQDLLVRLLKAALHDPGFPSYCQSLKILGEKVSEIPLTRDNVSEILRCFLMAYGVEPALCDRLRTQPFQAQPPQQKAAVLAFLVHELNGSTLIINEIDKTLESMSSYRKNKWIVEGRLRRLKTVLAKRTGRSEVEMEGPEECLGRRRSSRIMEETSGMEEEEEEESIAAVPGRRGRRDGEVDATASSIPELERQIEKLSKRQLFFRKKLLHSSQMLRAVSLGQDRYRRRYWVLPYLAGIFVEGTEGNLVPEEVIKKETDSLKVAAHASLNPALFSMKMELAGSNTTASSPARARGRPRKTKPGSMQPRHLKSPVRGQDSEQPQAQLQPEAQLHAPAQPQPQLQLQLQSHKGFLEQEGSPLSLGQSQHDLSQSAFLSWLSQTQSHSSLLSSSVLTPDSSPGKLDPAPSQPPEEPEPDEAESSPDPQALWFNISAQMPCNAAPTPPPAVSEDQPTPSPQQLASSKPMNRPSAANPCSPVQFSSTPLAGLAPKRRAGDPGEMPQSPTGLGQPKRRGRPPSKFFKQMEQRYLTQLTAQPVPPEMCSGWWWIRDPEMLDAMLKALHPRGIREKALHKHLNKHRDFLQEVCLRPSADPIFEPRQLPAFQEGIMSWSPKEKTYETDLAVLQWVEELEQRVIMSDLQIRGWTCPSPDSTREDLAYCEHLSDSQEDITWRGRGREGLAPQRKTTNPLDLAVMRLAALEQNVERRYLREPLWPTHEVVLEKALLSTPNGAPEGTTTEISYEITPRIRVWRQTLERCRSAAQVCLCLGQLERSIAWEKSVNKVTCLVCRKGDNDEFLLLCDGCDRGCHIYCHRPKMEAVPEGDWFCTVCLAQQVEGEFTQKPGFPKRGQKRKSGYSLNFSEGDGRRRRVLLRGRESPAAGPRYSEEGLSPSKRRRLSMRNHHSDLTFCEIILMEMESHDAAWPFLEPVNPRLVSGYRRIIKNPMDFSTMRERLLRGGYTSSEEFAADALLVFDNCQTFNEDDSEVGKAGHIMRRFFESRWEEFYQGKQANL
T12 sequence (Q86U86 178-291 limits assumed): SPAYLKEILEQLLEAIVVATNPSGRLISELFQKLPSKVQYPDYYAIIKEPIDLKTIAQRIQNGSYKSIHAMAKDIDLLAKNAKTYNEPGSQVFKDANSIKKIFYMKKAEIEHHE
T3 sequence (P25440 71-194 limits assumed): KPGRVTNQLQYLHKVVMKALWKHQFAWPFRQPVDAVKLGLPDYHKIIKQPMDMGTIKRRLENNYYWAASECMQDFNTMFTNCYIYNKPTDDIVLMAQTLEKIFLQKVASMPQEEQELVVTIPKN
T4 sequence (P25440 344-455 limits assumed): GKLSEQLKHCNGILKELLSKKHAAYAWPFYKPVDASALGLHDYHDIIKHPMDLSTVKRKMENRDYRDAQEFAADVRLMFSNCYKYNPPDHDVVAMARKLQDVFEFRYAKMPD

CC[C@H](C)[C@@H]1NC(=O)[C@H]([C@@H](C)O)NC(=O)[C@H](CCCCN)NC(=O)[C@H](Cc2c[nH]c3ccccc23)NC(=O)CSC[C@@H](C(N)=O)NC(=O)[C@H](CCC(N)=O)NC(=O)[C@H](CCCCNC(C)=O)NC(=O)[C@H]([C@@H](C)O)NC(=O)[C@H](CCCNC(=N)N)NC(=O)[C@H](Cc2c[nH]c3ccccc23)NC(=O)[C@H]([C@@H](C)O)NC(=O)[C@H](CCCCNC(C)=O)NC(=O)CNC(=O)[C@H](CCCCNC(C)=O)NC1=O [3.1B] ({CH2CO}-WKTIK(Ac)GK(Ac)TWRTK(Ac)QC-NH2; thioether N-14)
Percent Control BAZ2A (BAZ2A): 15% | Percent Control BRD1 (BRD1): 100% | Percent Control BRD2(1) (BRD2(1)): 21% | Percent Control BRD2(2) (BRD2(2)): 100% | Percent Control BRD3(2) (BRD3(2)): 100% | Percent Control BRD4(1) (BRD4(1)): 0.2% | Percent Control BRD4(2) (BRD4(2)): 99% | Percent Control CECR2 (CECR2): 100% | Percent Control EP300 (EP300): 100% | Percent Control FALZ (FALZ): 73% | Percent Control GCN5L2 (GCN5L2): 100% | Percent Control PBRM1(2) (PBRM1(2)): 100% | Percent Control PCAF (PCAF): 94% | Percent Control SMARCA2 (SMARCA2): 34% | Percent Control TAF1(2) (TAF1(2)): 82%

CC[C@H](C)[C@@H]1NC(=O)[C@H](Cc2c[nH]c3ccccc23)NC(=O)[C@H](Cc2c[nH]c3ccccc23)NC(=O)CSC[C@@H](C(N)=O)NC(=O)CNC(=O)[C@H](CCCCNC(C)=O)NC(=O)[C@H](CCCCN)NC(=O)[C@H](C(C)C)NC(=O)[C@H](CCCCNC(C)=O)NC(=O)[C@@H]2CCCN2C(=O)[C@H]([C@@H](C)CC)NC1=O [3.1C] ({CH2CO}-WWIIPK(Ac)VKK(Ac)GC-NH2; thioether N-11)
Percent Control BAZ2A (BAZ2A): 99% | Percent Control BRD1 (BRD1): 97% | Percent Control BRD2(1) (BRD2(1)): 2.4% | Percent Control BRD2(2) (BRD2(2)): 0.35% | Percent Control BRD3(2) (BRD3(2)): 13% | Percent Control BRD4(1) (BRD4(1)): 0% | Percent Control BRD4(2) (BRD4(2)): 13% | Percent Control CECR2 (CECR2): 99% | Percent Control EP300 (EP300): 100% | Percent Control FALZ (FALZ): 93% | Percent Control GCN5L2 (GCN5L2): 100% | Percent Control PBRM1(2) (PBRM1(2)): 100% | Percent Control PCAF (PCAF): 96% | Percent Control SMARCA2 (SMARCA2): 35% | Percent Control TAF1(2) (TAF1(2)): 79%

CC[C@H](C)[C@H](NC(=O)[C@H](CCCNC(=N)N)NC(=O)[C@H](CCCCNC(C)=O)NC(=O)[C@H](CCCNC(=N)N)NC(=O)[C@H](CC(C)C)NC(=O)[C@@H]1CSCC(=O)N[C@@H](Cc2c[nH]c3ccccc23)C(=O)N[C@@H](CCCCNC(C)=O)C(=O)NCC(=O)N[C@@H](Cc2ccc(O)cc2)C(=O)N[C@@H](CC(C)C)C(=O)N1)C(=O)N[C@@H](CCC(N)=O)C(=O)N[C@@H](CCCNC(=N)N)C(=O)N[C@H](C(=O)N[C@@H](Cc1ccc(O)cc1)C(=O)N[C@@H](CC(N)=O)C(N)=O)[C@@H](C)O [4.2C] ({CH2CO}-WK(Ac)GYLCLRK(Ac)RIQRTYN-NH2; thioether N-6)
remaining binding at 1 µM (BAZ2A; read-out: Percent Control BAZ2A): 100% | percent of control binding at 1 µM (BRD1): 84% | percent of control binding at 1 µM (BRD2(1)): 85% | remaining binding at 1 µM (BRD2(2); read-out: Percent Control BRD2(2)): 17% | remaining binding at 1 µM (BRD3(2); read-out: Percent Control BRD3(2)): 96% | remaining binding at 1 µM (BRD4(1); read-out: Percent Control BRD4(1)): 96% | remaining binding at 1 µM (BRD4(2); read-out: Percent Control BRD4(2)): 24% | percent of control binding at 1 µM (CECR2): 99% | remaining binding at 1 µM (EP300; read-out: Percent Control EP300): 100% | remaining binding at 1 µM (FALZ; read-out: Percent Control FALZ): 96% | percent of control binding at 1 µM (GCN5L2): 96% | remaining binding at 1 µM (PBRM1(2); read-out: Percent Control PBRM1(2)): 100% | percent of control binding at 1 µM (PCAF): 100% | percent of control binding at 1 µM (SMARCA2): 36% | percent of control binding at 1 µM (TAF1(2)): 67%
